Reference: patent US20260125400A1, “TYK2 DEGRADERS AND USES THEREOF” (Kymera Therapeutics, Inc., priority 2023, published 2026)

What follows are molecules tested against T1, TYK2 (Homo sapiens, UniProt P29597) (assay: TYK2 MSD degradation in OCI-LY10 cells). Conditions: OCI-LY10 cells, 4 to 24 hours incubation.
T1 construct: Degradation of TYK2 in cells was quantitatively measured using Meso Scale Discovery (MSD) technology; endogenous in cells; host or cells: OCI-LY10
T1 sequence (P29597 whole entry): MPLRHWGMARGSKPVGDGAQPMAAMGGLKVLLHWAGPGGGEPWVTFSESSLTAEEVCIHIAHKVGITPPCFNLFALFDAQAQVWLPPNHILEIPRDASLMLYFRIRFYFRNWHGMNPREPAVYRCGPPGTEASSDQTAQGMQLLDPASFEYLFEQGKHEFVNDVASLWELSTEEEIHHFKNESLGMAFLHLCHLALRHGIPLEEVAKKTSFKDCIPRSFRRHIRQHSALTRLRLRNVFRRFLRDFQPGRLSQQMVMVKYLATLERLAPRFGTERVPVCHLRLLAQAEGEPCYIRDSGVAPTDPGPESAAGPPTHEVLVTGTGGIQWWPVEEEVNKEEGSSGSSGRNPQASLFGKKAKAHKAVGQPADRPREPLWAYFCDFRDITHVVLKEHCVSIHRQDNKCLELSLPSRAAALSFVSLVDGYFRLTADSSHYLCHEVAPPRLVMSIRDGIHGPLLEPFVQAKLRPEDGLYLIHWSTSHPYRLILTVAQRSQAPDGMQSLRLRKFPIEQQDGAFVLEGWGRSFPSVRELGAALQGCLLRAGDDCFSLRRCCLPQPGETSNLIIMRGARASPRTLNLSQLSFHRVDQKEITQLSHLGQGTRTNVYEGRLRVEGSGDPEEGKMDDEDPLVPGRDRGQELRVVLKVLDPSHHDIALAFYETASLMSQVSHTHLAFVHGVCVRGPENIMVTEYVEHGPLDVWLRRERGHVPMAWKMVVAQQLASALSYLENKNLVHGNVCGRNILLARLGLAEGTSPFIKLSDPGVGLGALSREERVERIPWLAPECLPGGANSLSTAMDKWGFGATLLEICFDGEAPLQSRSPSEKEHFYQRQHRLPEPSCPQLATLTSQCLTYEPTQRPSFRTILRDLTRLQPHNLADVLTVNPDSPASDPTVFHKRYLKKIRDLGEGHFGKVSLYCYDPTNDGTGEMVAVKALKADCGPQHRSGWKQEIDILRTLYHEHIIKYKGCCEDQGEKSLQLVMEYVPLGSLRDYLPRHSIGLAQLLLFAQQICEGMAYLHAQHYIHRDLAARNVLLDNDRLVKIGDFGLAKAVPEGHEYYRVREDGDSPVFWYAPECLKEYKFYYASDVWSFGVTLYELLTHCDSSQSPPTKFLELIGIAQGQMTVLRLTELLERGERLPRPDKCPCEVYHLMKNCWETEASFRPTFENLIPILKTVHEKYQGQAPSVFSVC
Type: cell-based
In short: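 Cellular TYK2 levels were measured by Meso Scale Discovery sandwich detection in RIPA lysates of OCI-LY10 cells exposed 4 to 24 hours at 37° C to nine 1:3 compound doses starting at 1 to 10 μM final; dose-response fitted by four-parameter regression.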
In the case of `CNc1cc(N2CCc3c(-c4ccc(N5CCC6(CC5)CN(C(=O)c5ccc(C7CCC(=O)NC7=O)c(Cl)c5)C6)cn4)cccc32)nn2c(C(=O)NC3CC3F)cnc12` (mixture of isomers) [I-447], the “TYK2 MSD OCI-LY10 Dmax %” value was “C (C (75 to 50%))”.
In the case of `CNc1cc(N2CCc3c(CN4CCC(CN5CCN(C(=O)c6ccc(Cl)c(N7CCC(=O)NC7=O)c6)CC5)C(F)(F)C4)cccc32)nn2c(C(=O)N[C@@H]3C[C@@H]3F)cnc12` (stereo partly shown) [I-761], the “TYK2 MSD OCI-LY10 Dmax %” value was “B (B (90 to >75%))”.
For `CNc1cc(-c2cn(CC3CCN(CC4CCN(C(=O)c5ccc(Cl)c(N6CCC(=O)NC6=O)c5)CC4)CC3)c3ccccc23)nn2c(C(=O)N[C@@H]3C[C@@H]3F)cnc12` [I-773], the “TYK2 MSD OCI-LY10 Dmax %” value was “D (D (<50%))”.
For `CNc1cc(N2CCc3c(-c4ccc(CN5CCN(CCC6CCN(c7ccc(Cl)c(C8CCC(=O)NC8=O)c7)CC6)CC5)cn4)cccc32)nn2c(C(=O)NC3CC3F)cnc12` (mixture of isomers) [I-438], the “TYK2 MSD OCI-LY10 Dmax %” value was “C (C (75 to 50%))”.
In the case of `CNc1cc(N2CCc3c(-c4ccc(CN5CCC6(CCN(C(=O)c7cc(F)c(OC)c(N8CCC(=O)NC8=O)c7)CC6)C(F)(F)C5)cn4)cccc32)nn2c(C(=O)N[C@@H]3C[C@@H]3F)cnc12` [I-776], the “TYK2 MSD OCI-LY10 Dmax %” value was “B (B (90 to >75%))”.
For `CNc1cc(N2CCc3c(CN4CCC(N5CCC(C6CCN(C(=O)c7ccc(Cl)c(N8CCC(=O)NC8=O)c7)CC6)CC5)C(F)(F)C4)cccc32)nn2c(C(=O)N[C@@H]3C[C@@H]3F)cnc12` (stereo partly shown) [I-780], the “TYK2 MSD OCI-LY10 Dmax %” value was “A (A (>90%))”.
`CNc1cc(N2CCc3c(CN4CCC(N5CCC6(CCN(C(=O)c7cc(C)c(Cl)c(N8CCC(=O)NC8=O)c7)CC6)CC5)C(F)(F)C4)cccc32)nc2c(C(=O)N[C@@H]3C[C@@H]3F)cnn12` (stereo partly shown) [I-775] was tested, and the “TYK2 MSD OCI-LY10 Dmax %” value was “A (A (>90%))”.

Same assay, conditions: OCI-LY10 cells, 4 to 24 hours incubation, read-out: TYK2 MSD OCI-LY10 Rel-DC50
For `CNc1cc(N2CCc3c(-c4ccc(N5CCC6(CC5)CN(C(=O)c5ccc(C7CCC(=O)NC7=O)c(Cl)c5)C6)cn4)cccc32)nn2c(C(=O)NC3CC3F)cnc12` (mixture of isomers) [I-447], the DC50 was less than 10 nM.
`CNc1cc(N2CCc3c(CN4CCC(CN5CCN(C(=O)c6ccc(Cl)c(N7CCC(=O)NC7=O)c6)CC5)C(F)(F)C4)cccc32)nn2c(C(=O)N[C@@H]3C[C@@H]3F)cnc12` (stereo partly shown) [I-761] showed a DC50 of less than 10 nM.
`CNc1cc(-c2cn(CC3CCN(CC4CCN(C(=O)c5ccc(Cl)c(N6CCC(=O)NC6=O)c5)CC4)CC3)c3ccccc23)nn2c(C(=O)N[C@@H]3C[C@@H]3F)cnc12` [I-773] gave a DC50 greater than 100 nM.
`CNc1cc(N2CCc3c(-c4ccc(CN5CCN(CCC6CCN(c7ccc(Cl)c(C8CCC(=O)NC8=O)c7)CC6)CC5)cn4)cccc32)nn2c(C(=O)NC3CC3F)cnc12` (mixture of isomers) [I-438] gave a DC50 of less than 10 nM.
`CNc1cc(N2CCc3c(-c4ccc(CN5CCC6(CCN(C(=O)c7cc(F)c(OC)c(N8CCC(=O)NC8=O)c7)CC6)C(F)(F)C5)cn4)cccc32)nn2c(C(=O)N[C@@H]3C[C@@H]3F)cnc12` [I-776] was tested, and the DC50 was less than 10 nM.
For `CNc1cc(N2CCc3c(CN4CCC(N5CCC(C6CCN(C(=O)c7ccc(Cl)c(N8CCC(=O)NC8=O)c7)CC6)CC5)C(F)(F)C4)cccc32)nn2c(C(=O)N[C@@H]3C[C@@H]3F)cnc12` (stereo partly shown) [I-780], the DC50 was less than 1 nM.
For `CNc1cc(N2CCc3c(CN4CCC(N5CCC6(CCN(C(=O)c7cc(C)c(Cl)c(N8CCC(=O)NC8=O)c7)CC6)CC5)C(F)(F)C4)cccc32)nc2c(C(=O)N[C@@H]3C[C@@H]3F)cnn12` (stereo partly shown) [I-775], the DC50 was less than 1 nM.

Same assay, conditions: TYK2 degradation in OCI-LY10 cells, 4 to 24 hours incubation
With `CNc1cc(N2CCc3c(-c4ncc(CN5CC6(CCN(C(=O)c7cc(C)c(C)c(N8CCC(=O)NC8=O)c7)CC6(F)F)C5)cc4F)cccc32)nn2c(C(=O)NC3CCC3OC)cnc12` (stereo not shown) [I-993] the “TYK2 MSD OCI-LY10 Dmax %” value was “A (A (>90%))”.
In the case of `CNc1cc(N2CCc3c(CN4CCC(N5CCC6(CCN(C(=O)c7cc(N8CCC(=O)NC8=O)c(C)cc7Cl)CC6)CC5)C(F)(F)C4)cccc32)nn2c(C(=O)N[C@@H]3C[C@@H]3F)cnc12` (stereo partly shown) [I-845], the “TYK2 MSD OCI-LY10 Dmax %” value was “A (A (>90%))”.
With `CNc1cc(N2CCc3c(C#CCN4CC5(CCN(C(=O)c6ccc(Cl)c(N7CCC(=O)NC7=O)c6)CC5(F)F)C4)cccc32)nn2c(C(=O)N[C@@H]3C[C@@H]3F)cnc12` [I-241] the “TYK2 MSD OCI-LY10 Dmax %” value was “C (C (75 to 50%))”.
In the case of `CNc1cc(N2CCc3c(CN4CCC(N5CC(N6CCN(c7ccc8c(c7)n(C)c(=O)n8C7CCC(=O)NC7=O)CC6)C5)C(F)(F)C4)cccc32)nn2c(C(=O)N[C@@H]3C[C@@H]3F)cnc12` (stereo partly shown) [I-72], the “TYK2 MSD OCI-LY10 Dmax %” value was “B (B (90 to >75%))”.
`CNc1cc(N2CCc3c(-c4ncc(CN5CC6(CCN(C(=O)c7cc(Cl)c(C)c(N8CCC(=O)NC8=O)c7)CC6(F)F)C5)cc4F)cc(F)cc32)nn2c(C(=O)NC3CCC3OC)cnc12` (stereo not shown) [I-1038] was tested, and the “TYK2 MSD OCI-LY10 Dmax %” value was “A (A (>90%))”.
`CNc1cc(N2CCc3c(-c4ccc(CN5CC6(CCN(C(=O)c7ccc(Cl)c(N8CCC(=O)NC8=O)c7)CC6(F)F)C5)cn4)cccc32)nn2c(C(=O)N[C@@H]3C[C@@H]3F)cnc12` [I-67] was tested, and the “TYK2 MSD OCI-LY10 Dmax %” value was “A (A (>90%))”.
With `CNc1cc(N2CCc3c(-c4ccc(CC5(F)CC6(CCN(C(=O)c7cc(N8CCC(=O)NC8=O)c(C)cc7F)CC6)C5)cn4)cccc32)nn2c(C(=O)N[C@@H]3CC[C@H]3OC)cnc12` [I-1121] the “TYK2 MSD OCI-LY10 Dmax %” value was “A (A (>90%))”.

Same assay, conditions: TYK2 degradation in OCI-LY10 cells, 4 to 24 hours incubation, read-out: TYK2 MSD OCI-LY10 Rel-DC50
`CNc1cc(N2CCc3c(-c4ncc(CN5CC6(CCN(C(=O)c7cc(C)c(C)c(N8CCC(=O)NC8=O)c7)CC6(F)F)C5)cc4F)cccc32)nn2c(C(=O)NC3CCC3OC)cnc12` (stereo not shown) [I-993] showed a DC50 of less than 1 nM.
`CNc1cc(N2CCc3c(CN4CCC(N5CCC6(CCN(C(=O)c7cc(N8CCC(=O)NC8=O)c(C)cc7Cl)CC6)CC5)C(F)(F)C4)cccc32)nn2c(C(=O)N[C@@H]3C[C@@H]3F)cnc12` (stereo partly shown) [I-845] was tested, and the DC50 was less than 1 nM.
With `CNc1cc(N2CCc3c(C#CCN4CC5(CCN(C(=O)c6ccc(Cl)c(N7CCC(=O)NC7=O)c6)CC5(F)F)C4)cccc32)nn2c(C(=O)N[C@@H]3C[C@@H]3F)cnc12` [I-241] the DC50 was less than 10 nM.
`CNc1cc(N2CCc3c(CN4CCC(N5CC(N6CCN(c7ccc8c(c7)n(C)c(=O)n8C7CCC(=O)NC7=O)CC6)C5)C(F)(F)C4)cccc32)nn2c(C(=O)N[C@@H]3C[C@@H]3F)cnc12` (stereo partly shown) [I-72] gave a DC50 of less than 1 nM.
Molecule `CNc1cc(N2CCc3c(-c4ncc(CN5CC6(CCN(C(=O)c7cc(Cl)c(C)c(N8CCC(=O)NC8=O)c7)CC6(F)F)C5)cc4F)cc(F)cc32)nn2c(C(=O)NC3CCC3OC)cnc12` (stereo not shown) [I-1038] has a DC50 of less than 1 nM.
Molecule `CNc1cc(N2CCc3c(-c4ccc(CN5CC6(CCN(C(=O)c7ccc(Cl)c(N8CCC(=O)NC8=O)c7)CC6(F)F)C5)cn4)cccc32)nn2c(C(=O)N[C@@H]3C[C@@H]3F)cnc12` [I-67] has a DC50 of less than 1 nM.
`CNc1cc(N2CCc3c(-c4ccc(CC5(F)CC6(CCN(C(=O)c7cc(N8CCC(=O)NC8=O)c(C)cc7F)CC6)C5)cn4)cccc32)nn2c(C(=O)N[C@@H]3CC[C@H]3OC)cnc12` [I-1121] gave a DC50 of less than 1 nM.
